Results: PubChem BioAssay AID395 (SGCOxCompounds, 2006)

What follows are compounds tested against Serine/threonine-protein kinase 16 (Homo sapiens) (UniProt O75716) (assay: ligand-induced STK16 melting temperature shift – biophysical, recombinant human kinase, DSF (AID 395)). Conditions: recombinant STK16, DSF thermal shift, SYPRO orange; at 10 µM; protein 2 µM; buffer 10 mM HEPES; hits give high values.
Chain of Serine/threonine-protein kinase 16 (Homo sapiens) (O75716 whole entry, looked up): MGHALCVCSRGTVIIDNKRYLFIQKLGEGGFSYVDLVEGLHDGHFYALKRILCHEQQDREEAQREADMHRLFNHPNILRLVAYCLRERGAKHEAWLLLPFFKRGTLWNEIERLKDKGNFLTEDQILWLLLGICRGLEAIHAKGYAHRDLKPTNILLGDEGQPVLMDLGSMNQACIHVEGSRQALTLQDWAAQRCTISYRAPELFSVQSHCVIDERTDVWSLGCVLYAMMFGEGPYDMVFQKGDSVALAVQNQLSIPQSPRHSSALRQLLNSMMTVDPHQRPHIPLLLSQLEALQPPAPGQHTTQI
Work on `O=Nc1c(-c2c(O)[nH]c3ccccc23)[nH]c2ccccc12` yielded a Tm shift of 5.13 °C. For `Cc1cc(C=C2C(=O)C=CC2=O)cc(C)c1O`, the Tm shift was 3.24 °C. `CC(C)(C)c1nc2c3cc[nH]c(=O)c3c3cc(F)ccc3c2[nH]1` showed a Tm shift of 3.46 °C. For `O=c1cc(-c2ccc(O)cc2)oc2cc(O)cc(O)c12`, the Tm shift was 4.78 °C. Compound `COC(=O)c1cnc2oc3ccc(O)cc3c2c1-c1ccccc1` has a Tm shift of 5.35 °C. `O=c1c(O)c(-c2ccc(O)c(O)c2)oc2cc(O)cc(O)c12` showed a Tm shift of 4.78 °C. For `Clc1cccc(Nc2ccn3ncc(-c4cccnc4)c3n2)c1`, the Tm shift was 5.48 °C. Compound `O=C1Nc2ccccc2/C1=C\c1cnc[nH]1` has a Tm shift of 7.49 °C. For `Clc1cccc(-c2cnc3ccc(NC4CCOCC4)nn23)c1`, the Tm shift was 4 °C. In the case of `Fc1ccc(CNc2ccc3ncc(-c4ccco4)n3n2)cc1`, the Tm shift is reported as 4.18 °C. `Clc1cccc(Nc2ccn3ncc(-c4ccsc4)c3n2)c1` gave a Tm shift of 3.69 °C. `O=C1c2ccccc2-c2n[nH]c3cccc1c23` gave a Tm shift of 6.85 °C. Compound `O=C1Nc2ccccc2/C1=C/c1ccc[nH]1` has a Tm shift of 4.28 °C. For `CC(C)C(CO)Nc1nc(Nc2cccc(Cl)c2)c2ncn(C(C)C)c2n1` (stereo unspecified), the Tm shift was 3.15 °C. Compound `O=c1[nH]c2ncc(-c3cccnc3)nc2n1C1CCCC1` has a Tm shift of 5.29 °C. `c1ccc(-c2cnc3ccc(NCc4cccs4)nn23)cc1` showed a Tm shift of 3.62 °C. Compound `CC1N=C2SC=CN2C(=O)C1CCN1CCC(=C(c2ccccc2)c2ccc(F)cc2)CC1` (stereo unspecified) has a Tm shift of 3.67 °C. `c1csc(-c2cnc3ccc(NCC4CC4)nn23)c1` showed a Tm shift of 4.3 °C. Compound `COc1ccc2c(c1)/C(=C/c1cnc[nH]1)C(=O)N2` has a Tm shift of 4.35 °C. Compound `Clc1ccc(-c2cnn3ccc(NCc4cccnc4)nc23)cc1` has a Tm shift of 3.85 °C. For `Nc1ncnc2c1c(I)cn2[C@@H]1O[C@H](CO)C(O)C1O` (stereo partly specified), the Tm shift was 3.88 °C.

Same assay, conditions: recombinant STK16, DSF thermal shift, SYPRO orange; at 10 µM; protein 2 µM; buffer 10 mM HEPES; pH 7.5; NaCl 150 mM; hits give high values
In the case of `O=c1c(O)c(-c2ccc(O)cc2)oc2cc(O)cc(O)c12`, the Tm shift is reported as 3.87 °C. `CC(C)c1nn(-c2c(Cl)cccc2Cl)c2nc(Cc3ccc(OCCO)cc3)[nH]c(=O)c12` gave a Tm shift of 3.5 °C. `O=C1C(=O)C(c2cccc(O)c2)Oc2ccccc21` (stereo unspecified) gave a Tm shift of 4.41 °C. Compound `CCN(CC)CCNC(=O)c1c(C)[nH]c(/C=C2\C(=O)Nc3ccc(Cl)cc32)c1C` has a Tm shift of 6 °C. For `Cc1c(O)cc(O)c2c1OC(c1ccc(O)c(O)c1)C(=O)C2=O` (stereo unspecified), the Tm shift was 3.29 °C. `O=c1c(O)c(-c2ccc(O)c(O)c2)oc2cc(O)ccc12` showed a Tm shift of 8.54 °C. In the case of `O=C1NC(=O)C(c2c[nH]c3ccccc23)=C1c1c[nH]c2ccccc12`, the Tm shift is reported as 3.4 °C. In the case of `O=c1c(O)c(-c2ccc(O)c(O)c2)oc2cc(O)cc(O)c12`, the Tm shift is reported as 4.75 °C. For `CC(O)O/N=C1/C(c2c(O)[nH]c3cc(Br)ccc23)=Nc2ccccc21` (stereo unspecified), the Tm shift was 4.2 °C. Work on `O=c1cc(-c2ccc(O)c(O)c2)oc2cc(O)cc(O)c12` yielded a Tm shift of 4.82 °C. In the case of `Nc1nc(Nc2ccc(S(N)(=O)=O)cc2)nn1C(=S)Nc1c(F)cccc1F`, the Tm shift is reported as 7.8 °C. `OCC(O)CCO/N=C1/C(c2c(O)[nH]c3ccccc23)=Nc2ccccc21` (stereo unspecified) gave a Tm shift of 11.7 °C. `Cc1cc(Nc2nc(-c3ccccc3)nc3ccccc23)n[nH]1` was tested, and the Tm shift was 11.1 °C. `COc1cc(C2Oc3cc(O)cc(O)c3C(=O)C2=O)ccc1O` (stereo unspecified) gave a Tm shift of 3.97 °C. `O=Nc1c(-c2c(O)[nH]c3ccc(S(O)(O)O)cc23)[nH]c2ccccc12` gave a Tm shift of 5.7 °C. In the case of `NS(=O)(=O)c1ccc(Nc2nc(OCC3CCCCC3)c3[nH]cnc3n2)cc1`, the Tm shift is reported as 4.1 °C. For `O=C(Nc1cccc(Nc2nccc(Nc3cccc(C(F)(F)F)c3)n2)c1)C1CC1`, the Tm shift was 5.75 °C. For `Cn1cc(/C=C2\C(=O)Nc3ccc(S(N)(=O)=O)cc32)c2ccccc21`, the Tm shift was 4.8 °C. Work on `O=c1[nH]c(O)c2c1c1c3ccccc3nc1n1cncc21` yielded a Tm shift of 5.4 °C. In the case of `NCCCn1cc(C2=C(c3c[nH]c4ccccc34)C(=O)NC2=O)c2ccccc21`, the Tm shift is reported as 4.96 °C. In the case of `NC(=O)Nc1sc(-c2ccccc2)cc1C(N)=O`, the Tm shift is reported as 4.5 °C. `O=c1cc(-c2ccccc2)oc2cc(O)cc(O)c12` was tested, and the Tm shift was 5.74 °C. `N#C/C(=C1\Nc2ccccc2S1)c1ccnc(NCCc2cccnc2)n1` showed a Tm shift of 5.5 °C. `O=Nc1c(-c2c(O)[nH]c3ccc(I)cc23)[nH]c2ccccc12` gave a Tm shift of 4.2 °C. Work on `CC1N=C2SC=CN2C(=O)C1CCN1CCC(=C(c2ccccc2)c2ccc(F)cc2)CC1` (stereo unspecified) yielded a Tm shift of 3.2 °C. In the case of `O=C1NCc2c1c1c3ccccc3[nH]c1c1[nH]c3ccccc3c21`, the Tm shift is reported as 3.9 °C. For `O=C(c1ccc(Nc2nccc(-c3cc4ccccc4s3)n2)cc1)N1CCC(N2CCCC2)CC1`, the Tm shift was 8.9 °C. `N=C(N)SCCCn1cc(C2=C(c3c[nH]c4ccccc34)C(=O)NC2=O)c2ccccc21` gave a Tm shift of 4.3 °C. Compound `Nc1cccc(-c2cc3c(Oc4cccc(O)c4)ncnc3[nH]2)c1` has a Tm shift of 5.9 °C. For `Cc1nc(N)sc1-c1ccnc(Nc2cccc(-n3oo3)c2)n1`, the Tm shift was 10.7 °C.
